Measured values published in ChEMBL document CHEMBL2016464, “Identification of Inhibitors of NOD1-Induced Nuclear Factor-κB Activation” (ACS Med Chem Lett, 2011).
In brackets after ≈: the same amount, converted by molar mass. Activity calls are given as the source filed them. The rule behind the calls is not given here.

Tests used:
[1] = Solubility of the compound at pH 7.4; format: physicochemical; details: buffer
HEK-293T [2] = assay: Cytotoxicity against HEK293T cells at 20 uM by alamar blue assay; format: cell-based; details: human
cells = details: Homo sapiens, HEK-293T, 14 h
Description: Inhibition of TNFalpha-induced NFkappaB activation in HEK293T cells after 14 hrs by luciferase reporter gene assay

[3] = target: T1, Nucleotide-binding oligomerization domain-containing protein 1 (Homo sapiens, UniProt Q9Y239)
T1 sequence (Q9Y239 whole entry): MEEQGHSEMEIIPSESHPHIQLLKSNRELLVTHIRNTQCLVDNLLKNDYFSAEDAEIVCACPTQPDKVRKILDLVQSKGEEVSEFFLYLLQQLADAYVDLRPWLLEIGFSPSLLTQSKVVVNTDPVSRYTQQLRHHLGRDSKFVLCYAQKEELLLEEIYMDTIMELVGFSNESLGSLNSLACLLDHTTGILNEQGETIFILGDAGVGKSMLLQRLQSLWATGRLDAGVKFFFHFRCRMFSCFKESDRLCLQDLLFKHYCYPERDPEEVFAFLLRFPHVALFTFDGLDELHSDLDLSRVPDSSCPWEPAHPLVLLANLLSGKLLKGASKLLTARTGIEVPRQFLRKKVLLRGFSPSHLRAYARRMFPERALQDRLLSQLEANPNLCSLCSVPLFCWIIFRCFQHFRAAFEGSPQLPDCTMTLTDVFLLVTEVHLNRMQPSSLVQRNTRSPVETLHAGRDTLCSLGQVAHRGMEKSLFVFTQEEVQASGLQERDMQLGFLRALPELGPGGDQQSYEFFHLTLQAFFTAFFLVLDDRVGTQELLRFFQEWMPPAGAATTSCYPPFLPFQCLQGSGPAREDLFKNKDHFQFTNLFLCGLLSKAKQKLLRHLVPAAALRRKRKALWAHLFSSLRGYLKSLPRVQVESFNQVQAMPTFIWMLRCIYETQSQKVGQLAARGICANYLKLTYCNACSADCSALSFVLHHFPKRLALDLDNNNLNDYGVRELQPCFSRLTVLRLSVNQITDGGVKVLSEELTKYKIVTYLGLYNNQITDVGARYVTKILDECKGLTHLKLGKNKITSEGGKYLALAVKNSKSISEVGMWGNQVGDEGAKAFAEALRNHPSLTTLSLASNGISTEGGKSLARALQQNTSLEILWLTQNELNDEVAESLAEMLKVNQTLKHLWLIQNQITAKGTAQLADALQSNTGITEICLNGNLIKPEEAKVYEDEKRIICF

[4] = target: T2, Nucleotide-binding oligomerization domain-containing protein 2 (Homo sapiens, UniProt Q9HC29)
T2 sequence (Q9HC29 whole entry, the tested form may be a part): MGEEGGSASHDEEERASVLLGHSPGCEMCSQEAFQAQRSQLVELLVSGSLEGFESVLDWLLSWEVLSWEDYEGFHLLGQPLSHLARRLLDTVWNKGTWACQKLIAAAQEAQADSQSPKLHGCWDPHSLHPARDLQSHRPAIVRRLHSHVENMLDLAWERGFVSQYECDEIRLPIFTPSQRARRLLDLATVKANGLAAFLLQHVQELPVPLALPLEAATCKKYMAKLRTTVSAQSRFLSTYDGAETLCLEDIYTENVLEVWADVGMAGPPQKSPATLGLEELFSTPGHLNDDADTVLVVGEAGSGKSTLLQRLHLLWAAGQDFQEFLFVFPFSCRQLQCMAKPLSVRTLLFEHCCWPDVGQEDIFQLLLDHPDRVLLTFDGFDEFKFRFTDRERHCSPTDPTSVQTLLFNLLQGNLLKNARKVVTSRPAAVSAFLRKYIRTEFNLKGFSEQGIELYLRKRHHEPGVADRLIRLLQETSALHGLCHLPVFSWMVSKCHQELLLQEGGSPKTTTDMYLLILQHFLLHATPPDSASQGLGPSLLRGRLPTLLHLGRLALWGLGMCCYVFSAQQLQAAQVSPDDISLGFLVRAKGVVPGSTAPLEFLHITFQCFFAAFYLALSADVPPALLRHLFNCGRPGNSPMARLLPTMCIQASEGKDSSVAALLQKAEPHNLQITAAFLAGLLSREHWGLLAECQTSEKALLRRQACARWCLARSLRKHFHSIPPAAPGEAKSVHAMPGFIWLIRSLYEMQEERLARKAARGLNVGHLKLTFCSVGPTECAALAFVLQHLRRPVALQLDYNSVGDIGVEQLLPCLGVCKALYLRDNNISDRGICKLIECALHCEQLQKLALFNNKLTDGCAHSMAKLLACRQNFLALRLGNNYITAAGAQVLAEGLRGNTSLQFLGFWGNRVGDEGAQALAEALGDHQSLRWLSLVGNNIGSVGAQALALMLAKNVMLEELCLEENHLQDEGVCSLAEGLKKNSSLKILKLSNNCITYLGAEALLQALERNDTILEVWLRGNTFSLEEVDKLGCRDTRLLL

HEK-293T [5] = assay: Inhibition of PMA/ionomycin-induced NFkappaB activation at 0.25 to 25 uM in HEK293T cells by luciferase reporter gene assay; format: cell-based; details: Homo sapiens
[6] = target: Histamine H1 receptor (Homo sapiens) (UniProt P35367); assay: Inhibition of H1 histamine receptor at 10 uM
Histamine H1 receptor (Homo sapiens), sequence (P35367 whole entry): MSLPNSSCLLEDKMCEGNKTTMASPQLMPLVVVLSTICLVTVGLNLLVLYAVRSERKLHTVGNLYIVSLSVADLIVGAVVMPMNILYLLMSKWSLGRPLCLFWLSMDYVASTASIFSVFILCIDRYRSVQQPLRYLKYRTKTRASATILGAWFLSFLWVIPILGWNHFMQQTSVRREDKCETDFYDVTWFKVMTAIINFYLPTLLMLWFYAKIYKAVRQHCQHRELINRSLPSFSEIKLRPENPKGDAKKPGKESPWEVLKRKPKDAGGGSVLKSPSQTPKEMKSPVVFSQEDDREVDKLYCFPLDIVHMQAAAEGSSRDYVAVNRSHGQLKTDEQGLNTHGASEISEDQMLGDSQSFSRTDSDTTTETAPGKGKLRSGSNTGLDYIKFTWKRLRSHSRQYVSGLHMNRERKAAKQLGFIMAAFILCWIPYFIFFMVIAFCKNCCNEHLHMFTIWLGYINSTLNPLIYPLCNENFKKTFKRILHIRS

[7] = target: Aurora kinase B (Homo sapiens) (UniProt Q96GD4); assay: Inhibition of AURKB at 10 uM relative to control
Aurora kinase B (Homo sapiens), sequence (Q96GD4 whole entry, the tested form may be a part): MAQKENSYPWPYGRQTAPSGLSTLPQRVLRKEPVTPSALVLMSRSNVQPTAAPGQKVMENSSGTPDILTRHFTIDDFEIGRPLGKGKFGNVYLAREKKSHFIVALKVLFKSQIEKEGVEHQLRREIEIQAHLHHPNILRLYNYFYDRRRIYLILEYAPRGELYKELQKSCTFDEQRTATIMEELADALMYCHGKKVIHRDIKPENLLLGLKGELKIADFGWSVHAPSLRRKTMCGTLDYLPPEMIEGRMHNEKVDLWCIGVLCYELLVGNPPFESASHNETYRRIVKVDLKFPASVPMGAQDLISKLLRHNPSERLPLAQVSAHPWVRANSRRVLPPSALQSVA

[8] = target: T3, Nucleotide-binding oligomerization domain-containing protein 1 (Homo sapiens) (UniProt Q9Y239); details: MCF7, 0.25 to 5 uM
T3 sequence (whole entry): T1 sequence (Q9Y239 whole entry)

[9] = Plasma protein binding in mouse at 10 uM after 4 hrs; format: ADME, cell-free; details: read-out: PPB (converted)
[10] = Metabolic stability in mouse plasma assessed as compound remaining at 1 uM after 180 mins; format: ADME, cell-free; details: read-out: Stability
[11] = target: T2, Nucleotide-binding oligomerization domain-containing protein 2; assay: Inhibition of NOD-2 in human MCF7 cells assessed as inhibition of MDP-induced IL8 secretion at 0.25 to 5 uM by ELISA; format: cell-based
[12] = target: 5-hydroxytryptamine receptor 2B (Homo sapiens) (UniProt P41595); assay: Inhibition of 5HT2B receptor at 10 uM
5-hydroxytryptamine receptor 2B (Homo sapiens), sequence (P41595 whole entry): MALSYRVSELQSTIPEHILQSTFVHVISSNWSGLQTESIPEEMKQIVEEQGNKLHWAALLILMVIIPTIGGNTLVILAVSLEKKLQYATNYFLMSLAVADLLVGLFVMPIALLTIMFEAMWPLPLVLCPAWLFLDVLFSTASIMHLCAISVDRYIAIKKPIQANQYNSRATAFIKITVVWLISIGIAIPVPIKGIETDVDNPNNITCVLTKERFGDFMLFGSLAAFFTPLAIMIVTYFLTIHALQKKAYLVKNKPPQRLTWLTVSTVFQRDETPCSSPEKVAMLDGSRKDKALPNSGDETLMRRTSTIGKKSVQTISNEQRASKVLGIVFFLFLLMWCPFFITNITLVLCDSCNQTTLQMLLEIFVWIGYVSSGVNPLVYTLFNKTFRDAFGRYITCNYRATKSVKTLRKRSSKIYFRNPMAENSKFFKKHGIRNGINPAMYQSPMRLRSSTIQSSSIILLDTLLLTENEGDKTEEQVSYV

[13] = target: Serine/threonine-protein kinase RIO2 (Homo sapiens) (UniProt Q9BVS4); assay: Inhibition of RIOK2 at 10 uM relative to control
Serine/threonine-protein kinase RIO2 (Homo sapiens), sequence (Q9BVS4 whole entry, looked up): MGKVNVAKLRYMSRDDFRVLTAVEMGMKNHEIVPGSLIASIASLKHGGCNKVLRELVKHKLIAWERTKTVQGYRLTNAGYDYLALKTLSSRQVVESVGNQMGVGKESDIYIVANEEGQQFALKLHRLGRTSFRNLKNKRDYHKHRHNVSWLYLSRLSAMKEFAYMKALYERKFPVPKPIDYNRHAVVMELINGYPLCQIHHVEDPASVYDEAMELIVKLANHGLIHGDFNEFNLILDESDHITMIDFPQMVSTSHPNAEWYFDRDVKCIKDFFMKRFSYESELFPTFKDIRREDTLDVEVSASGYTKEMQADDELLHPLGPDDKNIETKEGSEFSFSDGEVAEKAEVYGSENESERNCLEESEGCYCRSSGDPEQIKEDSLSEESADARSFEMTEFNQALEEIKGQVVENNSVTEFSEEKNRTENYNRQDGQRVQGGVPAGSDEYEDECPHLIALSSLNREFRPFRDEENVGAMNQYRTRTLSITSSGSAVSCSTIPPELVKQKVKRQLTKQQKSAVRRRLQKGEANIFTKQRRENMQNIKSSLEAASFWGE

[14] = Plasma concentration in mouse at 30 mg/kg, ip at 20 mins
[15] = Plasma concentration in mouse at 15 mg/kg, ip at 20 mins
[16] = target: 5-hydroxytryptamine receptor 6 (Homo sapiens) (UniProt P50406); assay: Inhibition of 5HT6 receptor at 10 uM
5-hydroxytryptamine receptor 6 (Homo sapiens), sequence (P50406 whole entry): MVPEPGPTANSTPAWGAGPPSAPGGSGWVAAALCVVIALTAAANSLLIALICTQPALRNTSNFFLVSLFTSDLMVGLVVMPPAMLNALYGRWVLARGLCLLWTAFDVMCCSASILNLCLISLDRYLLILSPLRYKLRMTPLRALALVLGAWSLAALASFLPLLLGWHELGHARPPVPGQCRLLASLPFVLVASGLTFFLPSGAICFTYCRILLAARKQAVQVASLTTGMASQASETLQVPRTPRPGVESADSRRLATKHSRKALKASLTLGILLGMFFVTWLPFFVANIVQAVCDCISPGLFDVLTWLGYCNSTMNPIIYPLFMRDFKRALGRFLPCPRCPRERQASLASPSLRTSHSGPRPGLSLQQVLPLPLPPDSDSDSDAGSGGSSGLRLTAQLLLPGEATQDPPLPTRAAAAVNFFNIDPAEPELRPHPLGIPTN

[17] = Plasma protein binding in human at 10 uM after 4 hrs; format: ADME, cell-free; details: read-out: PPB (converted)
MCF7 = assay: Inhibition of TNFalpha-induced IL8 secretion in human MCF7 cells at 0.25 to 5 uM by ELISA; format: functional, cell-based
[18] = target: T4, Aurora kinase C (Homo sapiens) (UniProt Q9UQB9); assay: Inhibition of AURKC at 10 uM relative to control
T4 sequence (whole entry): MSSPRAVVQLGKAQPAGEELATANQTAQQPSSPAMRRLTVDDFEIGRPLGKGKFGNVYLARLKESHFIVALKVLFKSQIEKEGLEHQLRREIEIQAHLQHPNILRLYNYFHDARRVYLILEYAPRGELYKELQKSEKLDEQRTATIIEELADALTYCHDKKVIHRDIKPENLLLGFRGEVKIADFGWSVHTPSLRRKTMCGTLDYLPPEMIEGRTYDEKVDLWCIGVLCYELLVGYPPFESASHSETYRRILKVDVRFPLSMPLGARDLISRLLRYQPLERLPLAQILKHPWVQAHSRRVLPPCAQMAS

[19] = Metabolic stability in human plasma assessed as compound remaining at 1 uM after 180 mins; format: ADME, cell-free; details: read-out: Stability
[20] = Metabolic stability in human liver microsomes assessed as compound remaining at 1 uM preincubated for 10 mins measured after 60 mins; format: ADME, Microsome; details: read-out: Stability
[21] = Plasma concentration in mouse at 30 mg/kg, ip at 120 mins
[22] = target: T5, Aurora kinase A (Homo sapiens) (UniProt O14965); assay: Inhibition of AURKA at 10 uM relative to control
T5 sequence (whole entry): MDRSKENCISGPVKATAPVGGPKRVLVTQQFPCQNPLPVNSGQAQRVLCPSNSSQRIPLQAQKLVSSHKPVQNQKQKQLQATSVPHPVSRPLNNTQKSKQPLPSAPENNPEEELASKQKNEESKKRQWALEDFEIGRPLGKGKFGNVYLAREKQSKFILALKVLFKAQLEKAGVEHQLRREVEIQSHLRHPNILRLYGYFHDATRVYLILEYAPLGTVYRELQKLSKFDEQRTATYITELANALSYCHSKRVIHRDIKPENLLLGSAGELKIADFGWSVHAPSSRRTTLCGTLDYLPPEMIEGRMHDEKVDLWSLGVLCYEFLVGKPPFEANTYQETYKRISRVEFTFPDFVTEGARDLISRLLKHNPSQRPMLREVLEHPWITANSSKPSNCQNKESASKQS

[23] = target: Receptor-type tyrosine-protein kinase FLT3 (Homo sapiens) (UniProt P36888); assay: Inhibition of CFLT3 at 10 uM relative to control
Receptor-type tyrosine-protein kinase FLT3 (Homo sapiens), sequence (P36888 whole entry): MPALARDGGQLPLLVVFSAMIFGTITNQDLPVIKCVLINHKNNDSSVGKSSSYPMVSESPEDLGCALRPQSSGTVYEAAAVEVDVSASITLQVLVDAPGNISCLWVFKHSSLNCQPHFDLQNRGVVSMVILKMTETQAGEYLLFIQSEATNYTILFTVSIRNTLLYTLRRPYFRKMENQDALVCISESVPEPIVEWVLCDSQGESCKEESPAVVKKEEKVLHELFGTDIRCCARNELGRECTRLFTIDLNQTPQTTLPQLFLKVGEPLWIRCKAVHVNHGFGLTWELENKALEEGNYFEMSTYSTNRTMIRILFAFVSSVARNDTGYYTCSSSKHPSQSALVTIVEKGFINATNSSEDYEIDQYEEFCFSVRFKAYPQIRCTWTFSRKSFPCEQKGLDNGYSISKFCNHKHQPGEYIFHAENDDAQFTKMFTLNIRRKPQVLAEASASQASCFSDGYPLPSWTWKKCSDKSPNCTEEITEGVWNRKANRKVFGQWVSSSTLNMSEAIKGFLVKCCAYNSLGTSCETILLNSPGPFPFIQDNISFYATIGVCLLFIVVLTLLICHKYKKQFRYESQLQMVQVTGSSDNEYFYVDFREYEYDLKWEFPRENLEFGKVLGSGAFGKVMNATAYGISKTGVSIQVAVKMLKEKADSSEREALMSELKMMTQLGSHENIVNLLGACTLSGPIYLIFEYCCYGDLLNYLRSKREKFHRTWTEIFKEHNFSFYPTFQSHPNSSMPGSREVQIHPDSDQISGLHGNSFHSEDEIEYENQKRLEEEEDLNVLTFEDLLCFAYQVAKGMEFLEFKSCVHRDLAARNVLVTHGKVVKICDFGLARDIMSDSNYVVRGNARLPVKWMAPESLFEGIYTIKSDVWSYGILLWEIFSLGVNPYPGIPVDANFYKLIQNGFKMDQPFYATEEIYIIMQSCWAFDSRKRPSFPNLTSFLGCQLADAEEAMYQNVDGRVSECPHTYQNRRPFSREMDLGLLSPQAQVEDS

[24] = Plasma protein binding in mouse at 1 uM after 4 hrs; format: ADME, cell-free; details: read-out: PPB (converted)
[25] = Metabolic stability in mouse liver microsomes assessed as compound remaining at 1 uM preincubated for 10 mins measured after 60 mins; format: ADME, Microsome; details: read-out: Stability
[26] = Cytotoxicity against human Fa2N-4 cells after 24 hrs by ATP-lite assay; format: cell-based; details: read-out: LD50
HEK-293T [27] = assay: Inhibition of doxorubicin-induced NFkappaB activation at 0.25 to 25 uM in HEK293T cells by luciferase reporter gene assay; format: cell-based; details: Homo sapiens
[28] = Cytotoxicity against human NCI60 cells; format: cell-based
[29] = Plasma protein binding in human at 1 uM after 4 hrs; format: ADME, cell-free; details: read-out: PPB (converted)
[30] = Plasma concentration in mouse at 15 mg/kg, ip at 120 mins

Cc1ccc(N2CCN(S(=O)(=O)c3ccc4c(c3)CC(C)N4C(=O)C3CC3)CC2)cc1 (racemic)
solubility [1]: 0.1 µg/mL (≈ 0.227 µM) | Activity (HEK-293T [2]): 0% | IC50 (cells): > 20 µM | IC50 [3]: > 20 µM | IC50 [4]: > 20 µM

O=C(Nc1ccc(Cl)cc1)c1ccc(CCN2CCc3ccccc3C2)cc1
Activity (HEK-293T [2]): 0% | IC50 (cells): > 20 µM | IC50 [3]: > 20 µM | IC50 [4]: > 20 µM

CC(=O)c1ccc(N2CCN(S(=O)(=O)c3ccc4c(c3)CC(C)N4C(=O)C3CC3)CC2)cc1 (racemic)
solubility [1]: 0.1 µg/mL (≈ 0.214 µM) | Activity (HEK-293T [2]): 0% | IC50 (cells): > 20 µM | IC50 [3]: 10.3 µM | IC50 [4]: 7.9 µM

O=C(Nc1ccc(CN2CCc3ccccc3C2)cc1)c1ccc(Cl)cc1
Activity (HEK-293T [2]): 0% | IC50 (cells): > 20 µM | IC50 [3]: > 20 µM | IC50 [4]: > 20 µM

CCOc1ccc(NC(=O)c2ccc(CN3CCc4ccccc43)cc2)cc1
Activity (HEK-293T [2]): 0% | IC50 (cells): > 20 µM | IC50 [3]: > 20 µM | IC50 [4]: > 20 µM

CC1Cc2cc(S(=O)(=O)N3CCN(c4ccccc4)CC3)ccc2N1C(=O)C1CC1 (racemic)
solubility [1]: 0.1 µg/mL (≈ 0.235 µM) | Activity (HEK-293T [2]): 0% | IC50 (cells): 15.3 µM | IC50 [3]: > 20 µM | IC50 [4]: 17.4 µM

O=C(Nc1ccc(OC(F)(F)F)cc1)c1ccc(CN2CCc3ccccc3C2)cc1
Activity (HEK-293T [2]): 0% | IC50 (cells): 0.03 µM | IC50 [3]: 0.08 µM | IC50 [4]: 0.03 µM

Cc1ccc(S(=O)(=O)n2c(N)nc3ccccc32)cc1
inhibition (HEK-293T [5]): inactive | Activity (HEK-293T [2]): 0% | inhibition [6]: 89% | inhibition [7]: 21% | IC50 (cells): > 20 µM | inhibition [8]: Active | fraction unbound at 4 h, 10 µM [9]: 0.045 | remaining at 3 h, 1 µM [10]: 100% | inhibition [11]: inactive | inhibition [12]: 69% | inhibition [13]: 6% | concentration at 20 min [14]: 5500 ng/mL | concentration at 20 min [15]: 1200 ng/mL | inhibition [16]: 92% | fraction unbound at 4 h, 10 µM [17]: 0.023 | inhibition (MCF7): inactive | inhibition [18]: 23% | remaining at 3 h, 1 µM [19]: 100% | remaining at 1 h, 1 µM [20]: 41.8% | concentration at 2 h [21]: < 500 ng/mL | inhibition [22]: inactive | inhibition [23]: 27% | fraction unbound at 4 h, 1 µM [24]: 0.05 | remaining at 1 h, 1 µM [25]: 0.8% | CC50 at 24 h [26]: > 50 µM | inhibition (HEK-293T [27]): inactive | Activity [28]: Non-toxic | fraction unbound at 4 h, 1 µM [29]: 0.025 | concentration at 2 h [30]: < 500 ng/mL

CCC(=O)N1CCc2cc(S(=O)(=O)N3CCN(c4ccc(C(C)=O)cc4)CC3)ccc21
solubility [1]: 0.1 µg/mL (≈ 0.226 µM) | Activity (HEK-293T [2]): 0% | IC50 (cells): > 20 µM | IC50 [3]: > 20 µM | IC50 [4]: > 20 µM

O=C(C1CC1)N1CCc2cc(S(=O)(=O)N3CCN(c4ccc(Cl)cc4)CC3)ccc21
solubility [1]: 0.1 µg/mL (≈ 0.224 µM) | Activity (HEK-293T [2]): 0% | IC50 (cells): > 20 µM | IC50 [3]: > 20 µM | IC50 [4]: > 20 µM

COc1ccc(C(=O)Cn2c(N)nc3ccccc32)cc1
Activity (HEK-293T [2]): 0% | IC50 (cells): > 20 µM | IC50 [3]: > 20 µM | IC50 [4]: > 20 µM

Nc1nc2ccccc2n1C(=O)Cc1ccccc1
Activity (HEK-293T [2]): 0% | IC50 (cells): > 20 µM | IC50 [3]: > 20 µM | IC50 [4]: > 20 µM

COc1ccc(NC(=O)c2ccc(CN3CCc4ccccc43)cc2)cc1
Activity (HEK-293T [2]): 0% | IC50 (cells): > 20 µM | IC50 [3]: > 20 µM | IC50 [4]: > 20 µM

CSc1ccc(NC(=O)c2ccc(CN3CCc4ccccc43)cc2)cc1
Activity (HEK-293T [2]): 0% | IC50 (cells): > 20 µM | IC50 [3]: > 20 µM | IC50 [4]: > 20 µM

COc1ccc(NC(=O)c2ccc(CN3CCCCC3)cc2)cc1
Activity (HEK-293T [2]): 0% | IC50 (cells): > 20 µM | IC50 [3]: > 20 µM | IC50 [4]: > 20 µM

O=C(Nc1ccc(S(=O)(=O)O)cc1)c1ccc(CN2CCc3ccccc3C2)cc1
Activity (HEK-293T [2]): 0% | IC50 (cells): > 20 µM | IC50 [3]: > 20 µM | IC50 [4]: > 20 µM

CCOc1ccc(C(=O)Nc2ccc(CN3CCc4ccccc4C3)cc2)cc1
Activity (HEK-293T [2]): 0% | IC50 (cells): > 20 µM | IC50 [3]: > 20 µM | IC50 [4]: > 20 µM

CCOc1ccc(NC(=O)c2ccc(CCN3CCc4ccccc4C3)cc2)cc1
Activity (HEK-293T [2]): 0% | IC50 (cells): > 20 µM | IC50 [3]: > 20 µM | IC50 [4]: > 20 µM

CCC(=O)N1CCc2cc(S(=O)(=O)N3CCN(c4ccc(Cl)cc4)CC3)ccc21
solubility [1]: 0.1 µg/mL (≈ 0.23 µM) | Activity (HEK-293T [2]): 0% | IC50 (cells): > 20 µM | IC50 [3]: > 20 µM | IC50 [4]: > 20 µM
